Test results from patent publication US20220265626A1, “THE SERPINB3 INHIBITOR PIPERIDINPROPIONIC ACID FOR TUMOR TREATMENT” (UNIVERSITA' DEGLI STUDI DI PADOVA, priority 2019, published 2022).

How the values were obtained:
[1] = test system: HepG2/SB3 and HepG2/CTR cells; assay: Cell viability by MTT assay with antitumor drugs in the absence or presence of PPA; assay type: cell-based; conditions: for Resistance/sensitivity to drug-induced cell death, HepG2/SB3 compared with HepG2/CTR: drug 10 μM, without PPA
Protocol: The SeprinB3 molecule is known to induce resistance to chemotherapy treatment. In order to evaluate whether the inhibition of said molecule is able to increase the therapeutic efficacy of antitumor drugs, HepG2 cells stably transfected to overexpress SerpinB3 (HepG2/SB3) and HepG2 cells transfected with only the empty plasmid (HepG2/CTR) have been incubated with several antitumor drugs at a concentration of 10 μM (Cisplatin, Sorafenib, 5-Fluorouracil, Methotrexate) in the absence or presence of PPA. […] The results are expressed as a percentage of viability compared to cells incubated with only medium (CTR).

[2] = test system: HepG2 liver tumor derived cells (HB8065); assay: Real-time cell proliferation / cellular toxicity (xCELLigence, Normalized Cell Index); assay type: cell-based; conditions: monitored for over 60 hours
Protocol: HepG2 liver tumor derived cells (HB8065), incubated with increasing concentrations of 1′-Piperidin propionic acid (PPA) in a range of 5 -50 μg/ml were used and real-time cell proliferation was analysed, using xCELLigence instrument (ACEA Biosciences, Inc., San Diego, Calif., USA), according to the supplier's instructions. In each well of an E-16 plate, 4×10^4 HepG2 cells (HB8065) were seeded in quadruplicate, cultured in complete MEM medium (Sigma-Aldrich, Milan, Italy) supplemented with 10% fetal calf serum (Sigma-Aldrich, Milan, Italy), 100 U/mL of penicillin, 100 μg/ml of streptomycin, and 20 mM L-glutamine (Sigma-Aldrich, Milan, Italy) and 1% of MEM Non Essential Amino Acids. The cells were kept in an incubator at 37° C. with 95% humidity and 5% CO2 saturation. The complete medium was used as a control. The RTCA system monitored the electrical impedance, which is directly proportional to the number of cells present per well, indicated as Cell Index every 5 min for over 60 hours. The cell proliferation curves were analysed with the RTCA software and expressed as the Normalized Cell Index at the time of the treatment with PPA, an arbitrary unit corresponding to the number of cells present per well.
It should be noted that said concentration (5 μg/ml) is markedly higher than the biologically active PPA concentrations, whose normal range of use was 10-100 ng/ml.

SerpinB3 = SerpinB3 mRNA expression by real-time PCR (induced by exogenous SerpinB3 in THP-1 and HT29; constitutive in OE33 and HepG2/SB3); assay type: cell-based
Protocol: PPA was added in culture at a concentration of 1-100 ng/ml alone or in combination with recombinant SerpinB3 (SB3) at a concentration of 20-200 ng/ml to the cells, while only culture medium was added to the control wells. After 24 hours of treatment, the cells were collected by scraper and the extraction of total cell RNA and reverse transcription were performed according to standard protocols. SerpinB3 mRNA levels were measured by real-time PCR (sense: 5′-[…]-3′ (SEQ ID NO:1); reverse 5′-[…]-3′ (SEQ ID NO:2)).
They were seeded in 6-well plates and kept for 24 hours before treatment, each in its own complete culture medium in (Sigma-Aldrich, Milan, Italy). PPA (1′-piperidin propionic acid) was then added at a concentration of 10-100 ng/ml in PBS.
It should be noted that concentrations of 1-10 ng/ml are already able to reduce the synthesis of SerpinB3 by about 50%.

[3] = test system: THP-1 cells of monocytic origin; assay: Real-time proliferation of THP-1 cells stimulated with exogenous SerpinB3 (xCELLigence); assay type: cell-based; conditions: THP-1 cells with exogenous SerpinB3 20 ng/ml, PPA 1 ng/ml, 10 ng/ml, 10 μg/ml, up to 120 hours
Protocol: To evaluate cell proliferation in real time, the xCELLigence instrument (ACEA Biosciences, Inc., San Diego, Calif., USA) was used, as described in Example 1. THP-1 cells of monocytic origin were used, whose incubation with exogenous recombinant SerpinB3 (20 ng/ml) had induced a marked increase in the synthesis of endogenous SerpinB3, as reported in Example 2. A suspension of […] cells in quadruplicate was seeded in each well of an E-16 plate, cultured in complete RPMI medium (Sigma-Aldrich, Milan, Italy). The cells incubated with SerpinB3 alone or in the presence of PPA (1 ng/ml-10ng/ml-10 μg/ml) were monitored for up to 120 hours by the xCELLigence instrument and the cell proliferation curves shown in FIG. 3 were processed and expressed by the RTCA software as the Normalized Cell Index.

CCL15 and PD-L1 = assay: Expression of SerpinB3-induced cytokines in THP-1 cells; assay type: cell-based; conditions: PPA 1 ng/ml
Description: It has been documented that SerpinB3, in addition to inducing resistance to cell death and increased proliferation, is able to induce a reduction in tumor immunosurveillance, in particular through the increased production of cytokines such as CCL15, recently involved in the reduction of immune surveillance in hepatocellular carcinoma, and the immune checkpoint molecule PD-L1, towards which several new antitumor drugs are directed.

MDR1 and MDR2 genes = assay: Multidrug resistance gene expression by real time PCR; assay type: cell-based; conditions: HepG2/SB3 cells, PPA 10 and 100 ng/ml, 24 hours
Protocol: In order to understand more fully whether the resistance to chemotherapeutic drugs induced by SerpinB3 is exclusively linked to the increased resistance to cell death following the reduced activation of the mitochondrial proapoptotic cascade, the genes involved in multiple resistance to chemotherapeutic drugs have been analysed (multidrug resistance, MDR). In particular, HepG2/SB3 and HepG2 control cells (HepG2/empty) were collected after 24 hours of treatment with PPA at the doses of 10 ng/ml and 100 ng/ml and the gene expression was analysed as follows: MDR 1, MDR 2, MRP1, MRP2, MRP3, GSTP1 by real time PCR according to standard protocols.

[4] = test system: tumor development in the liver; assay: DEN plus CDAA diet mouse model of obesity-associated carcinogenesis; assay type: in vivo
Description: To better assess the role of SerpinB3 in carcinogenesis, a mouse model of obesity-associated carcinogenesis that requires a single administration of diethyl-nitrosamine (DEN) has been developed in mice with different expression of SerpinB3. The study has been performed in mice transgenic for human SerpinB3 (SerpinB3/TG) (the initial colony was kindly provided by Prof. Cassani, Tecnogen, Caserta, Italy) and in SerpinB3 knockout mice (SerpinB3/KO) (the initial colony was kindly provided by Dr. Gary Silverman and Dr. Cliff J. Luke, University of Pittsburg, Children's Hospital, Pittsburg, Pa.). Moreover wild type mice of similar age were used as controls. All animals were bred and maintained with free access to pellet food and water at the Animal Care Facility of the Experimental Surgery Division of the University of Padua.
Mice were injected with (DEN, 25 mg/kg i.p.) at the age of 2 weeks. These mice were fed at the age of 6 weeks with a choline-deficient L-amino acid-defined (CDAA) diet and part of them were sacrificed after […], while the remaining mice were sacrificed after […]. Two groups of control mice were also treated or not with PPA (weekely intraperitoneal injection of 50 ng/g of body weight) during CDAA diet. The experimental protocol was approved by the local Ethical Committee and by the Italian Ministry of Health (Authorization N. 442/2018-PR).

SMILES: O=c1[nH]cc(F)c(=O)[nH]1 [5-Fluorouracil, reference compound]
- Resistance/sensitivity to drug-induced cell death, HepG2/SB3 compared with HepG2/CTR [1]: not different

SMILES: N.N.[Cl][Pt][Cl] [Cisplatin, reference compound]
- Resistance/sensitivity to drug-induced cell death, HepG2/SB3 compared with HepG2/CTR [1]: greater resistance to cell death

SMILES: CN(Cc1cnc2nc(N)nc(N)c2n1)c1ccc(C(=O)N[C@@H](CCC(=O)O)C(=O)O)cc1 [Methotrexate, reference compound]
- Resistance/sensitivity to drug-induced cell death, HepG2/SB3 compared with HepG2/CTR [1]: not different

SMILES: O=C(O)CCN1CCCCC1 [PPA, 3-(1-piperidinyl)propanoic acid]
- PPA concentration up to which no cellular toxicity is observed ([2]; PPA 5-50 μg/ml): up to 5 μg/ml
- PPA doses at which cellular toxicity is highlighted (curves below the control curve) [2]: 25 to 50 µg/mL
- Constitutive SerpinB3 expression (SerpinB3; OE33 and HepG2/SB3 cells, PPA 10-100 ng/ml): reduces in a dose-dependent manner
- Reduction of the synthesis of SerpinB3 (SerpinB3; PPA concentrations of 1-10 ng/ml): about 50%
- SerpinB3 expression induced by exogenous treatment (SerpinB3; THP-1 and HT29 cells, PPA 1-100 ng/ml with recombinant SerpinB3 20-200 ng/ml, 24 hours): reduces in a dose-dependent manner
- Proliferative activity (Normalized Cell Index) [3]: reduction of the proliferative activity which has proved to be dose-dependent
- CCL15 level after stimulation with exogenous SerpinB3 (CCL15 and PD-L1): markedly reduced
- PD-L1 level after stimulation with exogenous SerpinB3 (CCL15 and PD-L1): markedly reduced
- Viability of cells with high levels of SerpinB3 treated with 5-Fluorouracil, on addition of PPA ([1]; HepG2/SB3, 5-Fluorouracil 10 μM): significant reduction of viability
- Viability of cells with high levels of SerpinB3 treated with Cisplatin, on addition of PPA ([1]; HepG2/SB3, Cisplatin 10 μM): significant reduction of viability
- Viability of cells with high levels of SerpinB3 treated with Methotrexate, on addition of PPA ([1]; HepG2/SB3, Methotrexate 10 μM): did not change
- Viability of cells with high levels of SerpinB3 treated with Sorafenib, on addition of PPA ([1]; HepG2/SB3, Sorafenib 10 μM): significant reduction of viability
- MDR1 gene expression (MDR1 and MDR2 genes): reduction of their expression in a dose-dependent manner
- MRD2 gene expression (MDR1 and MDR2 genes): reduction of their expression in a dose-dependent manner
- Tumor formation compared with mice that did not receive the compound ([4]; control (wild type) mice, DEN 25 mg/kg i.p. then CDAA diet, PPA weekly i.p. 50 ng/g body weight, preliminary results): remarkable reduction of tumor formation
- Tolerability in the experimental model ([4]; experimental model): well tolerated

SMILES: CNC(=O)c1cc(Oc2ccc(NC(=O)Nc3ccc(Cl)c(C(F)(F)F)c3)cc2)ccn1 [Sorafenib, reference compound]
- Resistance/sensitivity to drug-induced cell death, HepG2/SB3 compared with HepG2/CTR [1]: greater resistance to cell death
